What was measured:
[1] = molecular target: T1, LRRK2 (Homo sapiens, UniProt Q5S007); assay: LRRK2 inhibition enzymatic assay (Adapta, ThermoFisher); assay type: biochemical
T1 construct: purchased ThermoFisher (assay run by the company)

[2] = molecular target: BACE1 (Homo sapiens, UniProt P56817); assay: BACE1 enzymatic assay (FRET); assay type: biochemical; details: for inhibition at 10 µM: read-out: BACE1 enzyme inhibition at 10 μM
Description: BACE1 enzymatic assay. BACE1 in vitro assays were carried out using FRET.
μM) carrying the Swedish mutation and containing a rhodamine as a fluorescence donor and a quencher acceptor at each end was used. The intact substrate is weakly fluorescent and becomes highly fluorescent upon enzymatic cleavage.
The assays were conducted in 50 mM sodium acetate buffer, pH 4.5, in a final

[3] = molecular target: CK1δ (Homo sapiens, UniProt P48730); assay: CK1δ inhibition enzymatic assay (Kinase-Glo); assay type: biochemical
Description: CK1δ inhibition enzymatic assay. The “Kinase-Glo” Kit from Promega was used to screen compounds for activity against CK1δ Kinase-Glo assays were performed in assay buffer using black 96-well plates. In a typical assay, 10 μl of test compound (dissolved in DMSO at 1 mM concentration and diluted in advance in assay buffer to the desired concentration) 10 μl (16 ng) of enzyme were added to each well followed by 20 µl of assay buffer containing 0,1 % casein as substrate […]
exceed 1%. After 60-min incubation at 30°C the enzymatic reaction was stopped […]
with 40 μl of Kinase-Glo reagent. Glow-type luminescence was recorded after 10 min using a FLUOstar Optima (BMG Labtechnologies GmbH, Offenburg, Germany) multimode reader. The activity is proportional to the difference of the total and consumed ATP. The inhibitory activities were calculated on the basis of maximal activities measured in the absence of inhibitor. The IC50 was defined as the concentration of each compound that reduces a 50% the enzymatic activity with respect to that without inhibitors. […]
Ibérica SAU). Kinase-Glo Luminescent Kinase Assay was obtained from Promega (Promega Biotech Ibérica, SL). ATP and all other reagents were from Sigma Aldrich (St. Louis, MO). Assay buffer contained 50 mM HEPES (pH 7.5), 1 mM EDTA, 1 mM EGTA, and 15 mM magnesium acetate. […]

[4] = molecular target: T2, Human recombinant GSK3β (Homo sapiens, UniProt P49841); assay: GSK3β inhibition enzymatic assay (Kinase-Glo); assay type: biochemical
T2 construct: purchased Millipore (Millipore Ibérica SAU)
Description: GSK3β inhibition enzymatic assay. Human recombinant GSK3β and the pre-phosphorylated polypeptide substrate were purchased from Millipore (Millipore Ibérica SAU). Kinase-Glo Luminescent Kinase Assay was obtained from Promega (Promega Biotech Ibérica, SL). ATP and all other reagents were from Sigma Aldrich (St. Louis, MO). Assay buffer contained 50 mM HEPES (pH 7.5), 1 mM EDTA, 1 mM EGTA, and 15 mM magnesium acetate.
Kinase-Glo assays were performed in assay buffer using black 96-well plates. In a typical assay, 10 μL (10 μM) of test compound (dissolved in DMSO) at 1 mM concentration and diluted in advance in assay buffer to the desired concentration) and 10 μL (20 ng) of enzyme were added to each well followed by 20 μL of assay buffer containing 25 μM substrate and 1 μM ATP. The final DMSO concentration […]
After 30 min incubation at 30 °C, the enzymatic reaction was stopped with 40 μL of Kinase-Glo reagent. Glow-type luminescence was recorded after 10 min using a FLUOstar Optima (BMG
Labtechnologies GmbH, Offenburg, Germany) multimode reader. The activity is proportional to the difference of the total and consumed ATP. The inhibitory activities were calculated based on maximal activities measured in the absence of inhibitor. The IC50 was defined as the concentration of each compound that reduces a 50 % the enzymatic activity with respect to that without inhibitors. […]

[5] = system: SK-APP cells; assay: Aβ40 and Aβ42 levels in SK-APP cells (sandwich ELISA); assay type: cell-based, human; details: 10 μM, 48 h treatment
Description: page 35: enzyme concentration (1 U/mL). Inhibitor screening at 10 μM. The mixture was incubated for 60 min at 25 °C under dark conditions and then stopped with 2.5 M sodium acetate. Fluorescence was measured with a FLUOstar Optima (BMG Labtechnologies GmbH, Offenburg, Germany) microplate reader at 545 nm excitation and 585 nm emission. Evaluation of BACE Inhibitors Kinetics. To evaluate the mechanism of BACE1 inhibition of the compounds, substrate-dependent kinetic experiments were performed. BACE activity were measured at five different concentrations substrate (1000 -62,5 μM) in the absence or presence of the select inhibitor at two different concentrations. The results are presented as double reciprocal Lineweaver-Burk plots (1/V vs 1/[S]) Figure S1. Cell culture and treatments. SK-N-MC cells stably expressing the human isoform APP695 (SK-APP cell line […]1) were generated by transfection of SK-N-MC cells with a pCDNA3-APP expression vector, and kindly provided by Dr. MJ Bullido. These cells were cultured in DMEM (Thermo Fisher) medium supplemented with 10% FBS (Thermo Fisher), 1 mM glutamine (Sigma- Aldrich), and 100 unit/ml penicillin (Lonza) and […] streptomycin (Lonza). Cell cultures were maintained in a 5% CO2, humidified atmosphere at 37 °C. SH-SY5Y cells were obtained from the American Type Culture Collection and grown in DMEM media (Gibco), supplemented with 10% foetal bovine serum, and 1% penicillin/streptomycin (Invitrogen). The cells were grown at 37 °C in a humidified 5% CO2 atmosphere. For the treatments, all the compounds were dissolved in dimethyl sulfoxide (DMSO, from Sigma) at an initial stock concentration of 10 mM. […] working solutions were obtained from the dilution of the stock solutions in DMEM media (DMSO control solutions were prepared similarly to the compounds). Okadaic acid (OA, Sigma-Aldrich) was dissolved in DMSO at an initial stock concentration of 60 μM and a 250X working solution was obtained from the dilution of the stock solution in DMEM. All the compounds (250x solutions) were added directly into the wells at the indicated final concentrations for 1 hour before the treatment with OA at a final concentration of 30 nM. DMSO was added at the appropriate concentration to the 34 page 36: control-untreated cells. The cells were maintained in the presence of the OA and the different compounds for 24h. Measurement of cell viability. Cell viability assays were carried out using a 3- […] (Sigma-Aldrich) in 96-well cell culture plates. All cells were then incubated with a 0.5 mg/ml MTT solution (Sigma-Aldrich) at 37 °C for 4 h and then with cell lysis […] The absorbance values were determined at 590 nm. Cell viability was expressed as a percent of OD of control cells, the value of which was defined as 100%. Cell viability in SH-SY5Y were carried out following the same procedure but seeding the cells in 24 well multiplates. Absorbance was measured using a Varioskan Flash multiplate reader (Thermo Scientific) at test 550 nm and reference 664 nm wave-lengths. Compound concentration for SK-APP line was 10 μM and for the SH-SY5Y was 1 and 5 μM. Immunoassays. Levels of Aβ40 and Aβ42 were quantified by sandwich ELISAs (Wako, Osaka, Japan) from cellular lysates and conditioned media collected. CNS penetration: in vitro PAMPA-BBB test. Prediction of the brain penetration was evaluated using a parallel artificial membrane permeability assay (PAMPA).1 Nine quality control compounds (mentioned below) of know BBB permeability were included in each experiment to validate the analysis set.2 Commercial drugs […] dissolved in 250 μL of DMSO (Sigma-Aldrich). 25 μL of these compound stock solutions were taken and 225 μL of DMSO and 4750 μL of PBS pH 7.4 buffer were added to reach 5% of DMSO concentration in the experiment and a final […] Compounds to be determined their ability to pass the brain barrier (0.5-1 mg) were dissolved in 250 μL of DMSO and 4750 μL of PBS pH 7.4 was carefully added to afford a final […]

[6] = system: SH-SY5Y cells; assay: Okadaic acid-induced cell death model, viability of SH-SY5Y cells; assay type: cell-based, human; details: OA 30 nM, 24 h, compound 1 and 5 µM
Description: page 35: enzyme concentration (1 U/mL). Inhibitor screening at 10 μM. The mixture was incubated for 60 min at 25 °C under dark conditions and then stopped with 2.5 M sodium acetate. Fluorescence was measured with a FLUOstar Optima (BMG Labtechnologies GmbH, Offenburg, Germany) microplate reader at 545 nm excitation and 585 nm emission. Evaluation of BACE Inhibitors Kinetics. To evaluate the mechanism of BACE1 inhibition of the compounds, substrate-dependent kinetic experiments were performed. BACE activity were measured at five different concentrations substrate (1000 -62,5 μM) in the absence or presence of the select inhibitor at two different concentrations. The results are presented as double reciprocal Lineweaver-Burk plots (1/V vs 1/[S]) Figure S1. Cell culture and treatments. […] The absorbance values were determined at 590 nm. Cell viability was expressed as a percent of OD of control cells, the value of which was defined as 100%. […] Absorbance was measured using a Varioskan Flash multiplate reader (Thermo Scientific) at test 550 nm and reference 664 nm wave-lengths. […] Levels of Aβ40 and Aβ42 were quantified by sandwich ELISAs (Wako, Osaka, Japan) from cellular lysates and conditioned media collected. […] Compounds to be determined their ability to pass the brain barrier (0.5-1 mg) were dissolved in 250 μL of DMSO and 4750 μL of PBS pH 7.4 was carefully added to afford a final […]

[7] = PAMPA-BBB test; assay type: in vitro ADME; details: PAMPA-BBB; for Papp at 2.5 h / Pe exp: PBS pH 7.4/DMSO 95/5, 2.5 h, room temperature; for Papp at 2.5 h: read-out: Pe exp
Description: dissolved in 250 µL of DMSO (Sigma-Aldrich). 25 µL of these compound stock
solutions were taken and 225 µL of DMSO and 4750 µL of PBS pH 7.4 buffer
compound concentration in the range of 0.2 to 1.1 mM. Compounds to be
µL of DMSO and 4750 µL of PBS pH 7.4 was carefully added to afford a final
compound concentration in the range of 0.2 to 1.1 mM. Solutions were filtered
using filter PDVF membrane units (diameter 30 mm, pore size 0.45 μm, Symta).
10 µL of each solution were taken and diluted 10-fold with PBS/DMSO (95/5) for
HPLC-MS analysis. The acceptor 96-well plate (Multiscreen®, catalog no.
MAMCS9610, Millipore) was filled with 180 µL of PBS/DMSO (95/5). The donor
96-well plate (Multiscreen® IP Sterile Plate PDVF membrane, pore size is 0.45
M, catalog no. MAIPS4510, Millipore) was coated with 4 µL 20 mg·mL-1 of
for 5 min and then 180 µL of each compound solution was added. Then the donor
plate was put on the acceptor plate and kept for 2.5 h at room temperature. After
incubation, samples were collected from the acceptor plate and diluted 10-fold
with PBS/DMSO (95/5) for HPLC-MS analysis and compared to HPLC-MS of
initial solutions. Absorbance peak of each compound was determined by MS
detection and was used to calculate the concentration of compounds and
Every sample was analysed in two independent
runs. HPLC-MS was performed using a HPLC-MS equipment from Thermo
Fisher coupled to a Finnigan TM LXQ TM detector. Each compound was
analysed using a Sunfire column C18, 3.5 μm (50 mm x 4.6 mm) and acetonitrile
and Milli-Q water (with 0.1% formic acid) as mobile phase. The standard gradient

[8] = parameters: method as in earlier work; details: PAMPA-BBB reported permeability ref 2; cited from earlier work

T1 sequence (Q5S007 whole entry): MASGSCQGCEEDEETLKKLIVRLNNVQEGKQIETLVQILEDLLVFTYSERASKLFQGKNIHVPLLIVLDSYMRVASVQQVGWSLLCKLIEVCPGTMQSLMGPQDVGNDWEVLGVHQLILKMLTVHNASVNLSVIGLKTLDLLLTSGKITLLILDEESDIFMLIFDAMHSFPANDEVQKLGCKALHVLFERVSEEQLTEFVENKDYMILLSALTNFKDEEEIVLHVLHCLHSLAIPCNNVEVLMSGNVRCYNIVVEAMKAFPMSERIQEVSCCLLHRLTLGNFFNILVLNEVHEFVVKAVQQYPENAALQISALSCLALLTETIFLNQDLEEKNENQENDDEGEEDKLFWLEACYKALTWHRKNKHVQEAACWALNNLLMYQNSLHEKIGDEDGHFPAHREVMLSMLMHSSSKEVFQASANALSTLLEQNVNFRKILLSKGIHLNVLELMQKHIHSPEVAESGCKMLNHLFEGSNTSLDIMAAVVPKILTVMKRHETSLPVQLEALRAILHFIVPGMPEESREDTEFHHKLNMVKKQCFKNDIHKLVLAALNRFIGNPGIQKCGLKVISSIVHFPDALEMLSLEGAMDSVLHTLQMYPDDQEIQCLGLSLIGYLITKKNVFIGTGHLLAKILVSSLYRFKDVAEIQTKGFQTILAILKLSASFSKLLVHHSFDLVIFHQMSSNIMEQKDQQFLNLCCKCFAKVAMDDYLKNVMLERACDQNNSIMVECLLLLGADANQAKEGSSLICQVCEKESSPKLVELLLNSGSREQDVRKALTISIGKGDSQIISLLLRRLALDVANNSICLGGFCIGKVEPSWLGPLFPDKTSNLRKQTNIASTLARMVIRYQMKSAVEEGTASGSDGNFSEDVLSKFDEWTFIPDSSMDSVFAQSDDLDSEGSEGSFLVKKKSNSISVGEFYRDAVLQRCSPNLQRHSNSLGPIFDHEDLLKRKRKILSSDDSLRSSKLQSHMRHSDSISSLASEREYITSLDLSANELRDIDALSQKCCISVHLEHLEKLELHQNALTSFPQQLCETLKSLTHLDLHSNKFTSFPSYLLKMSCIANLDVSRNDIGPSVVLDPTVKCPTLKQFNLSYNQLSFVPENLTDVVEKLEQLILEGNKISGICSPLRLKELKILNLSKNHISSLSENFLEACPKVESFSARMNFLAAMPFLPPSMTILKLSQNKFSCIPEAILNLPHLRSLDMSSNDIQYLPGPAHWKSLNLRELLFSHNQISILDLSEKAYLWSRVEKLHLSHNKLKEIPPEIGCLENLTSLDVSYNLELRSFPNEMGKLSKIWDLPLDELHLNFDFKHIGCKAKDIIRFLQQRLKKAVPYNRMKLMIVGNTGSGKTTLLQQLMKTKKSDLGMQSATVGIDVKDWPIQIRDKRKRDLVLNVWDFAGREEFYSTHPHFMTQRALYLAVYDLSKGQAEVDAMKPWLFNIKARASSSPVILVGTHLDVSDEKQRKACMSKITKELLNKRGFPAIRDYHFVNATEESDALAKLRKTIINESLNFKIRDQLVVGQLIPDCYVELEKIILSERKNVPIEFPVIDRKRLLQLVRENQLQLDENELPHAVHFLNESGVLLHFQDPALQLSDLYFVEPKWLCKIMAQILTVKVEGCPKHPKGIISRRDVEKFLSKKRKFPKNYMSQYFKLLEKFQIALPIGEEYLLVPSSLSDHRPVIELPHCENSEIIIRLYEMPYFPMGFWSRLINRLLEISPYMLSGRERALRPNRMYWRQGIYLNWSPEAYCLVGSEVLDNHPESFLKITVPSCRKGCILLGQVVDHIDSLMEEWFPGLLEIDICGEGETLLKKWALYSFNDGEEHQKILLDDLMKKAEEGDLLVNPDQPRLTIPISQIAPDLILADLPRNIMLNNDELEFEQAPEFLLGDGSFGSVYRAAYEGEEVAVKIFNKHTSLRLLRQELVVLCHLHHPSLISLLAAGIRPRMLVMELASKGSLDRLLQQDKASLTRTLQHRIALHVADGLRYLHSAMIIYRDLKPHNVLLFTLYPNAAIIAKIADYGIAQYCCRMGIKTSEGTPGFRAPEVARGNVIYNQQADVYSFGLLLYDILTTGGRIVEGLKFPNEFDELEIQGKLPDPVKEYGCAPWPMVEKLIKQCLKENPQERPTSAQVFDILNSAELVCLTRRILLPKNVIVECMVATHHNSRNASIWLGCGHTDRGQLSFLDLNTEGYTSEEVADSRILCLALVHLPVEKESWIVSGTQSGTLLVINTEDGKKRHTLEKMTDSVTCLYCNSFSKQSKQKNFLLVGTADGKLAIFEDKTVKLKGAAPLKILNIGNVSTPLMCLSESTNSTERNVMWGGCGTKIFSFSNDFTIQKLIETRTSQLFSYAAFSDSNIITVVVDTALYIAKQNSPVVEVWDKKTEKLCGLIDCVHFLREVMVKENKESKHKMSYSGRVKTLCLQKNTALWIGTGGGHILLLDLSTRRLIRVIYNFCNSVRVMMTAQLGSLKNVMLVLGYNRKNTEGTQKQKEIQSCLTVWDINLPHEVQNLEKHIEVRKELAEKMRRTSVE
Sequence of BACE1 (P56817 46-501): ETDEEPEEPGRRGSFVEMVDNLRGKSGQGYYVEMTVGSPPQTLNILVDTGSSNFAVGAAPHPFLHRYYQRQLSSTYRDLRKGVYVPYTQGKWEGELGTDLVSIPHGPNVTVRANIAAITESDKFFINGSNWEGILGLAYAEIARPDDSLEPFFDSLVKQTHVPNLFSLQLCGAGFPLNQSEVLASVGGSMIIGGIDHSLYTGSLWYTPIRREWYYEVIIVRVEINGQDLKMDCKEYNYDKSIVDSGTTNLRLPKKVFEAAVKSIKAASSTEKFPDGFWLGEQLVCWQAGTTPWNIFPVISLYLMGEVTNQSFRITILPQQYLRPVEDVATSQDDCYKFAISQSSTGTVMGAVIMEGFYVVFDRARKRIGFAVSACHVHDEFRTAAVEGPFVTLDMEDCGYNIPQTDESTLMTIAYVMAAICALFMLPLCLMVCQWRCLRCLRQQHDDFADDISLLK
Sequence of CK1δ (P48730 whole entry): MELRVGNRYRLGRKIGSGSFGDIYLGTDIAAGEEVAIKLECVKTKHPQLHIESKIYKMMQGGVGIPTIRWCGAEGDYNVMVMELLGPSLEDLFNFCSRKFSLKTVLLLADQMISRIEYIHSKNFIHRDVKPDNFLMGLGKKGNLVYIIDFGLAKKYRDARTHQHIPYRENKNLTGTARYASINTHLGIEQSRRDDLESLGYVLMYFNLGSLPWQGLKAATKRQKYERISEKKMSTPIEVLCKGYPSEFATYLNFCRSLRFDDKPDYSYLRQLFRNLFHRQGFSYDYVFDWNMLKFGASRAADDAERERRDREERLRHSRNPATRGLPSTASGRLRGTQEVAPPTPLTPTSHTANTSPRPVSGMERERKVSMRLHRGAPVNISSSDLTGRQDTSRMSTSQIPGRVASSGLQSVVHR
T2 sequence (P49841 whole entry): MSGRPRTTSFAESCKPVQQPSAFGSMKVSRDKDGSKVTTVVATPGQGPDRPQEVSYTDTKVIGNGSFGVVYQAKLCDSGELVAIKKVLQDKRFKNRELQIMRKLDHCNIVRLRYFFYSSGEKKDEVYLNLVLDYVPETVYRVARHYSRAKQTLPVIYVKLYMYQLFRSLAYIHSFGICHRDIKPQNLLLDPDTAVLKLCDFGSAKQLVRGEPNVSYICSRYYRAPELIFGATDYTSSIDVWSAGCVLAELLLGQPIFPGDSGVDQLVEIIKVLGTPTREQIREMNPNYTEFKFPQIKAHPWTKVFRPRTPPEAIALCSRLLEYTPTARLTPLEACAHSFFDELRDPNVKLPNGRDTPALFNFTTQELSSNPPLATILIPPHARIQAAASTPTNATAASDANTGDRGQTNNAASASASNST

Work on `O=C1Nc2ccccc2/C1=N/c1ccc(OCc2cn(Cc3ccc(C(=O)Nc4nc5ccccc5s4)cc3)nn2)cc1` [compound 32] yielded an inhibition at 10 µM ([1]; read-out: LRRK2 enzyme inhibition at 10 μM) of 54% and an inhibition at 10 µM [2] of less than 20%.
For `CCn1sc(=O)n(Cc2cn(Cc3ccc(CC(=O)Nc4nc5ccccc5s4)cc3)nn2)c1=O` [compound 15], the IC50 [3] was 1.25 ± 0.21 µM, the IC50 [4] was 3.85 ± 0.32 µM and the inhibition at 10 µM [2] was 30%. For the same compound, the “Aβ40 levels in cellular lysates” value [5] was “decrease”, the “Aβ40 levels in extracellular fluid” value [5] was “decrease” and the “Aβ42 levels in cellular lysates (intracellular)” value [5] was “unchanged”. For the same compound, the “Aβ42 levels in extracellular fluid” value [5] was “significant decrease”, the “Neuroprotection against okadaic acid (OA) toxicity” value [6] was “rescue from the toxic effect of OA” and the CNS prediction [7] was “CNS+ (CNS+ (green) for compounds with Pe >3.20×10^−6 cm s^−1)”. For the same compound, the Papp at 2.5 h [7] was 5.08 ± 0.63 ×10⁻⁶ cm/s.
In the case of `CN(C)CCCN1c2ccccc2Sc2ccccc21` [Promazine, promazine, reference compound], the Papp at 2.5 h [7] is given as 5.18 ± 0.43 ×10⁻⁶ cm/s and the “Pe Bibl.” value [8] is given as 8.8 10-6 cm s-1.
With `CCn1cc(C(=O)O)c(=O)c2cc(F)c(N3CCNCC3)nc21` [Enoxacine, enoxacine, reference compound] the Pe exp [7] was 1.41 ± 0.05 10-6 cm s-1.
For `O=C(Cc1ccc(OCc2cn(CCc3ccc(C(=O)Nc4nc5ccccc5s4)cc3)nn2)cc1)Nc1nc2ccccc2s1` [compound 30], the IC50 [1] was 3.19 ± 1.01 µM, the inhibition at 10 µM ([3]; read-out: CK1δ enzyme inhibition at 10 μM) was 30% and the IC50 [2] was 8.57 ± 0.45 µM. For the same compound, the CNS prediction [7] was “CNS+ (CNS+ (green) for compounds with Pe >3.20×10^−6 cm s^−1)”, the Papp at 2.5 h [7] was 3.58 ± 0.12 ×10⁻⁶ cm/s and the melting point was 239 to 240 °C.
For `CCn1sc(=O)n(Cc2ccccc2)c1=O` [MBC-2138, reference compound], the IC50 [4] was 0.53 ± 0.03 µM and the IC50 [2] was greater than 20 µM.
Work on `CNCCCN1c2ccccc2CCc2ccccc21` [Desipramine, desipramine, reference compound] yielded a Papp at 2.5 h [7] of 7.44 ± 0.9 ×10⁻⁶ cm/s.
With `COc1ccc2nc(NC(=O)Cc3ccc(OCc4cn(CCc5ccc(C(=O)Nc6nc7ccccc7s6)cc5)nn4)cc3)sc2c1` [compound 29] the IC50 [1] was 0.44 ± 0.1 µM, the IC50 [3] was 12.6 ± 0.7 µM and the IC50 [2] was 11 ± 1.36 µM. For the same compound, the CNS prediction [7] was “CNS- (CNS‐ (red) for compounds with Pe <1.88×10^−6 cm s^−1)” and the Pe exp [7] was 0 10-6 cm s-1.
In the case of `O=C(Nc1nc2ccccc2s1)c1ccc(CSCCCSCc2ccc(C(=O)Nc3nc4ccccc4s3)cc2)cc1` [compound 3], the IC50 [1] is reported as 1.88 µM and the IC50 [2] is reported as 7.14 µM.
